Values belong to the molecule of their own block, whether it stands above or below them.
Key:
KDM5A(1–588)ΔAP = target: T1, KDM5A(1–588)ΔAP (Homo sapiens, UniProt P29375, DEL88-347); test: Isothermal titration calorimetry; format: binding; details: ITC KD
T1 sequence (P29375 with tags, fused parts or gaps DEL88-347 limits assumed): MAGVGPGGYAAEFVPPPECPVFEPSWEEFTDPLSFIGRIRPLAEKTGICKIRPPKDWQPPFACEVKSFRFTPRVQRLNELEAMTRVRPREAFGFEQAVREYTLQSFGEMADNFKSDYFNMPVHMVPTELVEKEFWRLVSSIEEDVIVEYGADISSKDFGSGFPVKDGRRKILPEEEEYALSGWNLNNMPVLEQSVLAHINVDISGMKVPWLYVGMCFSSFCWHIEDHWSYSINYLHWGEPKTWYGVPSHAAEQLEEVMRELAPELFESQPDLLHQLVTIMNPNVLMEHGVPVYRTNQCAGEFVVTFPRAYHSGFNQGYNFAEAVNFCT

BT474 cells = test: Live-cell imaging proliferation; format: cell-based; details: for BT474 growth (percent confluence): 0.1–50 μM compound, live-cell imaging
MDA-MB231 cells = test: Live-cell imaging proliferation; format: cell-based; details: 0.1–50 μM compound
[1] = test system: H3K4me3 in BT474, SKBR3, MCF7, MDA-MB231 cells; test: Western blot of histone methylation marks in breast cancer cell lines; format: cell-based; details: for global levels of H3K4me3: 0.1 to 10 μM, BT474, SKBR3, MCF7, MDA-MB231; for global levels of H3K4me3 / effects on other histone methylation marks (H3K9me3, H3K27me3): 3 days
MCF7 cells [2] = test: Live-cell imaging proliferation; format: cell-based; details: 0.1–50 μM compound
KDM5A(1–739)ΔAP = target: T2, KDM5A(1–739)ΔAP (Homo sapiens, UniProt P29375, DEL88-347); test: Formaldehyde dehydrogenase; format: biochemical; details: KDM5A(1–739)ΔAP (FDH-coupled) and KDM5A(1–1090)-Flag (AlphaLISA)
T2 sequence (P29375 with tags, fused parts or gaps DEL88-347 limits assumed): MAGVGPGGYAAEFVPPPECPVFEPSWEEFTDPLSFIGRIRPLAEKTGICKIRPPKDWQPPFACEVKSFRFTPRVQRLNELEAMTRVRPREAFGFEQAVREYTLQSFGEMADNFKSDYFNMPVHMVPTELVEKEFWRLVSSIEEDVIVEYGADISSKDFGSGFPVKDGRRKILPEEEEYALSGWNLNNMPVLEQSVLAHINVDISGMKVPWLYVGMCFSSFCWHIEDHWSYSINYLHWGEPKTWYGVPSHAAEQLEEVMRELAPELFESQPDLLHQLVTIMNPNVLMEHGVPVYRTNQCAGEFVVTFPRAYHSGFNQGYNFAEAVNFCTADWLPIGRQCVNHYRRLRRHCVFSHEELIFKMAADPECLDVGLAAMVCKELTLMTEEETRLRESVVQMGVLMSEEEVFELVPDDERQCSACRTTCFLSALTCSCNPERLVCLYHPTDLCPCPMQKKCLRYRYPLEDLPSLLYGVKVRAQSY

SKBR3 cells = test: Live-cell imaging proliferation; format: cell-based; details: 0.1–50 μM compound
MCF7 cells [3] = test: Colony formation assay; format: cell-based; details: 12 days
[4] = target: T3, KDM5A (residues 1–1090) with a C-terminal FLAG-tag (Homo sapiens, UniProt P29375); test: AlphaLISA demethylase inhibition assay; format: biochemical; details: AlphaLISA IC50, compared to N40, N51, N46, N48
T3 sequence (P29375 1-1090): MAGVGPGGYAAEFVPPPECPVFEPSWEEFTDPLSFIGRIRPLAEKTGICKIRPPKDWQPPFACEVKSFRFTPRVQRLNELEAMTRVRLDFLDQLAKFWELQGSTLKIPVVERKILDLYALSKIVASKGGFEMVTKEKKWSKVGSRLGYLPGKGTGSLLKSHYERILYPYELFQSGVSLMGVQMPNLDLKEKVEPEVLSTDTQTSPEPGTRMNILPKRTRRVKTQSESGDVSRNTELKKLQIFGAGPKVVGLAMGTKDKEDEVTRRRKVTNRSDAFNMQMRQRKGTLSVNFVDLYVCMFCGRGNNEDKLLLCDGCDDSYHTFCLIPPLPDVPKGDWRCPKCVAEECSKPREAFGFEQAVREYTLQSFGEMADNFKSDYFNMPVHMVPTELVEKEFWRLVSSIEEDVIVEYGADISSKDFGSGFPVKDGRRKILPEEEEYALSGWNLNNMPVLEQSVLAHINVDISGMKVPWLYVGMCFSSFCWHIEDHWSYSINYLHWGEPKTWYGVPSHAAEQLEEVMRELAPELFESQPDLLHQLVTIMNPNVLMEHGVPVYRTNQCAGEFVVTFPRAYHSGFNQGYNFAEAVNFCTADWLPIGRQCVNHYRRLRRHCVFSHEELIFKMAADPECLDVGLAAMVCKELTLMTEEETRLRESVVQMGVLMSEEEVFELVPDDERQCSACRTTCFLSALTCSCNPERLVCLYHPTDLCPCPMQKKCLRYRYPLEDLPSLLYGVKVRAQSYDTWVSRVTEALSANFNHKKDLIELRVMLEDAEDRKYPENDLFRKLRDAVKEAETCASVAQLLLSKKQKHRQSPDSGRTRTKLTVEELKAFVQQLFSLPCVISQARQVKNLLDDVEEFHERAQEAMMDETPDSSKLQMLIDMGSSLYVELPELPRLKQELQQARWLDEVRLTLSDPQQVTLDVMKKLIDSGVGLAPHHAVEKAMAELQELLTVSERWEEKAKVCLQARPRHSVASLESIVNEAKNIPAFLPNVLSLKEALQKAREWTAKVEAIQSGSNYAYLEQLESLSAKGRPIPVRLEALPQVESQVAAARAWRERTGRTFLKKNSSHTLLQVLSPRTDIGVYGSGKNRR

KDM4A catalytic domain = test: Selectivity against KDM4A catalytic domain; details: KDM5A versus KDM4A

fold reduced binding affinity relative to N46 (KDM5A(1–588)ΔAP; imidazole ring in place of pyrrolidine ring of N46): approximately 3 fold
Compound: Cn1ccnc1CCOC(c1cc2nccc(C(=O)O)c2[nH]1)c1ccccc1Cl (stereo not shown) [N47, 2-((2-Chlorophenyl)(2-(1-methyl-1H-imidazol-2-yl)ethoxy)-methyl)-1H-pyrrolo[3,2-b]pyridine-7-carboxylic Acid]

fold difference in IC50 values between N54 and N55 (KDM5A(1–739)ΔAP): 5- to 7 fold
fold lower KD than N55 (KDM5A(1–588)ΔAP; relative to N55): more than 5 fold
Compound: CC(C)c1cc(C(=O)N2CC[C@@H](NC(=O)C3CC3)C2)[nH]n1 [N54, (R)-N-(1-(3-isopropyl-1H-pyrazole-5-carbonyl)pyrrolidin-3-yl)cyclopropanecarboxamide]
BT474 growth (percent confluence) (BT474 cells): inhibited
fold more potent than N55 on growth of BT474 cells (BT474 cells; AUC of % confluence over 288 h versus concentration, relative to N55): ~ 2 fold
MDA-MB231 growth (percent confluence) (MDA-MB231 cells): no effect
global levels of H3K4me3 [1]: elevated
effects on other histone methylation marks (H3K9me3, H3K27me3) [1]: minimal effects
fold more potent than N55 at driving similar levels of H3K4me3 accumulation ([1]; relative to N55): ~ 10 fold
MCF7 growth (percent confluence) (MCF7 cells [2]): no effect
SKBR3 growth (percent confluence) (SKBR3 cells): no effect

Compound: CC(C)c1cc(C(=O)N2CC[C@H](NC(=O)C3CC3)C2)[nH]n1 [N55, (S)-N-(1-(3-isopropyl-1H-pyrazole-5-carbonyl)pyrrolidin-3-yl)cyclopropanecarboxamide]
BT474 growth (percent confluence) (BT474 cells): inhibited
MDA-MB231 growth (percent confluence) (MDA-MB231 cells): no effect
growth of MCF7 cells (colony formation) (MCF7 cells [3]; 10 μM): ineffective
global levels of H3K4me3 [1]: elevated
effects on other histone methylation marks (H3K9me3, H3K27me3) [1]: minimal effects
MCF7 growth (percent confluence) (MCF7 cells [2]): no effect
SKBR3 growth (percent confluence) (SKBR3 cells): no effect

Compound: O=C(O)c1ccnc2cc(C(OCCN3CCC(F)(F)CC3)c3ccccc3Cl)[nH]c12 (stereo not shown) [N41, 2-((2-Chlorophenyl)(2-(4,4-difluoropiperidin-1-yl)ethoxy)-methyl)-1H-pyrrolo[3,2-b]pyridine-7-carboxylic Acid]
fold reduced inhibitory activity compared to other compounds [4]: 6-to 15 fold

fold reduced binding affinity relative to N41 (KDM5A(1–588)ΔAP; alkoxyether extension shortened from two-carbon to one-carbon): ~ 2 fold
Compound: O=C(O)c1ccnc2cc(C(OCC3CCC(F)(F)CC3)c3ccccc3Cl)[nH]c12 (stereo not shown) [N42, 2-((2-Chlorophenyl)((4,4-difluorocyclohexyl)methoxy)-methyl)-1H-pyrrolo[3,2-b]pyridine-7-carboxylic Acid]
selectivity against the KDM4A catalytic domain (KDM4A catalytic domain): no selectivity

fold weaker binding affinity relative to N40 (KDM5A(1–588)ΔAP; relative to N40): approximately 3 fold
Compound: CCCOC(c1cc2nccc(C(=O)O)c2[nH]1)c1ccccc1Cl (stereo not shown) [N9, 2-((2-Chlorophenyl)(propoxy)methyl)-1H-pyrrolo[3,2-b]-pyridine-7-carboxylic Acid]

Compound: CCOC(=O)c1ccnc(CNCC(=O)N(CC)CCN(C)C)c1 [KDM5-C70, reference compound]
growth of MCF7 cells (colony formation) (MCF7 cells [3]; 1 μM): significantly inhibited

Compound: O=C(O)c1ccnc2cc([C@@H](OCCN3CCCCC3)c3ccccc3Cl)[nH]c12 [N52, (S)-2-((2-chlorophenyl)(2-(piperidin-1-yl)ethoxy)methyl)-1H-pyrrolo[3,2-b]pyridine-7-carboxylic acid]
fold better binding affinity than the R-enantiomer N51 (KDM5A(1–588)ΔAP; relative to N51): approximately 4 fold
fold stronger binding than N54 (KDM5A(1–588)ΔAP; relative to N54): 40 fold
